Patent publication US5403824A, “Methods for the treatment of osteoporosis” (The Procter & Gamble Company, priority 1993, dated 1995)
Square brackets hold non-standard residues; d marks the D form. Peptide text beside a SMILES is read from it. * marks the point of attachment. tBu = CC(C)(C)*

Tests used:
[1] = test system: Rat osteoblast-like cells (ROS 17/2.8); experiment: [3H]-thymidine incorporation, proliferation of osteoblast-like cells; assay type: cell-based; settings: ROS 17/2.8, 18 hrs incubation, 2 hrs pulse
Text: Stimulation of osteoblast-like cell proliferation can be measured according to several art-recognized in vitro models. One such model is described in European Patent Publication No. 384,731, by Rodan et al, published Aug. 29, 1990, which is incorporated herein by reference. (Applicants have modified this method by reducing regent volumes to one-quarter those described and by utilizing Dulbecco's Modified eagle's Medium (DMEM).) In this model, proliferation (division) of, for example, rat osteoblast-like cells (rat osteosarcoma (ROS) cells, rat calvaria cells, etc.) is observed by measuring the amount of radiolabeled thymidine ([^3 H]thymidine) incorporated by these cells. ([^3 H]thymidine is "incorporated" by cellular DNA being synthesized as a result of cell proliferation.) The greater the level of [^3 H]thymidine measured, the greater the amount of proliferation of the osteoblast cells.
More specifically, a test sample (comprised of a test compound and osteoblast-like cells) and a control sample (comprised of only osteoblast-like cells) are pulsed with [^3 H]thymidine. The amount of [^3 H]thymidine incorporated by the cells is measured using a direct beta counter.
Rat osteoblast-like cells (ROS 17/2.8) are plated at 4×10^3 cells/well in a 96-well plate in Dulbecco's Modified eagle's Medium supplemented with 2% (v/v) Fetal Bovine Serum, and incubated for 6 hrs. Control (serum-free) medium and test medium (test sample and serum-free medium) are then added to the cells and this combination is incubated for 18 hrs. The cells are then pulsed with [^3 H]-thymidine (1 μCi/well) for 2 hrs. The medium is then removed, the cells are harvested onto glass fibre filters and the amount of [^3 H]-thymidine (counts per minute per well) incorporated into DNA is then determined using a direct beta counter. Values for control groups are then compared to values for treated groups.
(§1) The compound H-Tyr-D-Ala-Gly-Phe-D-Leu-OH ("DADLE") is screened to determine whether it stimulates proliferation of osteoblast-like cells. […] The medium is then removed, the cells are harvested onto glass fibre filters, and the amount of ^3 H-thymidine (counts per minute per well) incorporated into DNA is determined using a direct beta counter. […]
as §1, with “Tyr-D-Cys(S-t-butylthioether)-Gly-Phe-Leu-Thr(O-t-butylether) ("BUBUC")” for “H-Tyr-D-Ala-Gly-Phe-D-Leu-OH ("DADLE")”

[2] = test system: human subject with postmenopausal osteoporosis or low bone mass; experiment: treatment of human subject with osteoporosis, vertebral density by dual-energy photon absorptiometry; assay type: in vivo
Protocol: A human subject weighing about 60 kg (132 lbs), suffering from postmenopausal osteoporosis, is treated by a method of this invention. Specifically, for two years, the enkephalin-degrading enzyme inhibitor DL-3-mercapto-2-benzylpropanoylglycine is administered orally, in a cyclical regimen, where each cycle consists of an active period of 28 days during which a tablet containing 160 mg of said inhibitor is administered each day, followed by a non-active period of 28 days during which the subject receives a daily supplement of calcium (1,000 mg/day), with repeat of cycle.
A human subject weighing about 60 kg (132 lbs), suffering from postmenopausal osteoporosis, is treated by a method of this invention. Specifically, for two years, the compound H-Tyr-D-Ala-Gly-Phe-D-Leu-OH ("DADLE") is administered to the subject, in a cyclical regimen, where each cycle consists of an active period of 28 days during which a solution containing 30 mg of DADLE is administered intravenously every day, followed by a non-active period of 28 days during which the patient receives a daily supplement of calcium (1,000 mg/day), with repeat of cycle.
(§2) A human subject weighing about 60 kg (132 lbs), suffering from postmenopausal osteoporosis, is treated by a method of this invention. Specifically, for two years, an enkephalin of the formula Tyr-D-Cys(S-t-butylthioether)-Gly-Phe-Leu-Thr(O-t-butylether) ("BUBUC") is administered to the subject, in a cyclical regimen, where each cycle consists of an active period of 28 days during which a solution containing 30 mg of BUBUC is intravenously administered each day, followed by a non-active period of 28 days during which the patient receives a daily supplement of calcium (1,000 mg/day), with repeat of cycle.
as §2, with “years, the” for “years, an”, “enkephalin secretagogue Tyr-Arg^1,” for “enkephalin of the formula Tyr-D-Cys(S-t-butylthioether)-Gly-Phe-Leu-Thr(O-t-butylether) ("BUBUC")”, “of Tyr-Arg” for “of BUBUC”, “the subject” for “the patient”, “cycle. […]” for “cycle.”
A human subject weighing about 60 kg (132 lbs), suffering from postmenopausal osteoporosis, is treated by a method of this invention. Specifically, each day for five years, the subject is administered 3 tablets, comprised as follows.
A human subject weighing about 60 kg (132 lbs) is evaluated approximately four years after spontaneous menopause, and is found to have low bone mass. The subject is then treated by a method of this invention to treat osteoporosis. Specifically, once each month for five years, the subject is administered, via intravenous injection, 5 ml of a solution comprised as follows.

delta opioid receptor = target: T1, delta opioid receptor (Cavia porcellus, UniProt A0A286XTF2); experiment: inhibition of [3H]DPDPE binding, method of Goldstein et al.; parameters: species or system guinea pig; settings: radioligand [3H]DPDPE
T1 construct: A preferred source of delta opioid receptors is guinea pig brain; from tissue; host or cells: guinea pig brain
Text: Affinity for delta opioid receptors can be measured by any of several art-recognized in vitro models. One such model is described by Goldstein et al., and is discussed above. According to this model, a test compound is screened for its ability to inhibit binding of a delta-selective radiolabeled ligand ("delta-selective radiolabeled ligand" refers to a radiolabeled compound that is known to have selective affinity to delta opioid receptors) to delta opioid receptor binding sites. More specifically, this in vitro model compares test samples (comprising a delta-selective radiolabeled ligand ("hot ligand"); the non-radiolabeled equivalent to the "hot ligand" ("cold ligand"); test compound at varying concentrations in each test sample; and delta opiate receptor material) and a control sample (comprising hot ligand; cold ligand; and delta opiate receptor material).
(§3) Following the protocol set forth by Goldstein et al., the samples are assayed for relative radioactivity.
In assessing a compound's in vitro affinity for delta opioid receptors according to the method described by Goldstein et al., the delta-selectiveradiolabeled ligand ("hot ligand") is preferrably [^3 H]Tyr-D-Pen-Gly-Phe-D-Pen-OH ("[^3 H]-DPDPE"). The preferred "cold ligand" is therefore H-Tyr-D-Pen-Gly-Phe-D-Pen-OH ("cold DPDPE" or "DPDPE"). A preferred source of delta opioid receptors is guinea pig brain. […]

mu opioid receptor = mu opioid receptor (Cavia porcellus, UniProt A0ACM8Q262); experiment: inhibition of [3H]DAGO binding, method of Goldstein et al.; parameters: species or system guinea pig; settings: radioligand [3H]DAGO
Text: Affinity for mu opioid receptors can be measured by any of several art-recognized in vitro models. One such model is described by A. Goldstein et al., "Multiple Opioid Receptors: Ligand Selectivity Profiles and Binding Site Signatures", 36 […] 265-272 (1989), which is incorporated herein by reference. According to this model, a test compound is screened for its ability to inhibit binding of a mu-selective radiolabeled ligand ("mu-selective radiolabeled ligand" refers to a radiolabeled compound that is known to have selective affinity for mu opioid receptors) to mu opioid receptor binding sites. More specifically, this in vitro model compares test samples (comprising a mu-selective radiolabeled ligand ("hot ligand"); the non-radiolabeled equivalent to the "hot ligand" ("cold ligand"); test compound at varying concentrations in each test sample; and mu opiate receptor material) and a control sample (comprising hot ligand; cold ligand; and mu opiate receptor material).
as §3
In assessing a compound's in vitro affinity for mu opioid receptors according the method described by Goldstein et al., the mu-selective radiolabeled ligand (i.e., "hot ligand") is preferrably [^3 H]Tyr-D-Ala-Gly-N-methyl-Phe-Gly(ol) ("[^3 ]DAGO" or "hot DAGO"). […]

osteoblast-like cells = experiment: enkephalin secretion from osteoblast-like cells, RIA of immunoreactive enkephalin; assay type: cell-based; settings: 48 hrs incubation
Protocol: In vitro release of enkephalin can be determined using any of several art-recognized in vitro models. One such model is described by Rosen et al., "Regulated Expression of Proenkephalin A in Normal Lymphocytes", 143 J. Immunol. 3703-07 (1989), which is incorporated herein by reference. In this model, "target cells" (preferably bone-derived cells, such as human osteoblast-like cells, rat calvaria cells, rat osteosarcoma cells, etc.) are incubated in tissue culture medium in the presence (test sample) and absence (control sample) of a test agent.
Osteoblast-like cells are incubated in tissue culture medium in the presence (test samples) and absence of the compound Tyr-Arg for 48 hrs. Peptides are extracted from packed cells by homogenization in 10 volumes of 0.2M HCl, heated to 100° C. for 3 min. and centrifuged at 15,000×g for 30 min. at 4° C. An aliquot of the resulting supernatant is purified on a C18 octadecyl Ampere minicolumn using a non-polar extraction procedure as recommended by the manufacturer of the columns. Another portion of the supernatant is lyophilized and reconstituted in 1.0 ml of 50 mM Tris-HCl (pH 8.0), 2 mM CaCl2 containing 20 µg/ml trypsin L-p-tosylamino-2-phenylethyl chloromethyl ketone. After trypsin digestion (2 hr at […]), samples are heated to 100° C. for 20 min., cooled and then treated with carboxypeptidaseB (0.2 μg/ml) for 1 hr. at 37° C. […]

[3] = 30 mg intravenously daily (substitutes at comparable levels), 28 days active / 28 days calcium, two years

T1 sequence (A0A286XTF2 1-366): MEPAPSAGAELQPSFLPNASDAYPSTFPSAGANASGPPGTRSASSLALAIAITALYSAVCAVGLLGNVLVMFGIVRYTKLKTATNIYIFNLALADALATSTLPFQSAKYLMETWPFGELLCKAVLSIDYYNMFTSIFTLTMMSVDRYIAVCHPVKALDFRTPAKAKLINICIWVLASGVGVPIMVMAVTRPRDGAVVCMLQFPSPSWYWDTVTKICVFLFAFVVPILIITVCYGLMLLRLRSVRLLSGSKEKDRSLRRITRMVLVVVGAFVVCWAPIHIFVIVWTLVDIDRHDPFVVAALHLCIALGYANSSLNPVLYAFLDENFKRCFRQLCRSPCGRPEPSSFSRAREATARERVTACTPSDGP
mu opioid receptor, sequence (A0ACM8Q262 1-400): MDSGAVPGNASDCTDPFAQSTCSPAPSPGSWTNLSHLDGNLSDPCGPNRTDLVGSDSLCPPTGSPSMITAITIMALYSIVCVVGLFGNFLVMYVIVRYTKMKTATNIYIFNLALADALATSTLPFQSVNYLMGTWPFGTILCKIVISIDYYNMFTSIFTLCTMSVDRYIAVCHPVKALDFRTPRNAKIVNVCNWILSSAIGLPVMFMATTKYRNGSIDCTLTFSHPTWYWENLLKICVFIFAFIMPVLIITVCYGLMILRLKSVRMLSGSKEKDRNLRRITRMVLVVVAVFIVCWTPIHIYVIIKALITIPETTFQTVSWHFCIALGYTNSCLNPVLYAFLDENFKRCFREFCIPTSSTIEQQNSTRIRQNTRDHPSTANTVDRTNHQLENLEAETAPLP

| SMILES | [3H]-thymidine incorporation (proliferation) vs control [1] | density of vertebrae / bone mass [2, 3] | density of vertebrae / bone mass ([2]; Example 8: 5 ml of 30.0 mg/ml solution i.v. once each month for five years) | in vitro delta opioid receptor affinity (IC50 ≤1000 times the IC50 of non-radiolabeled DPDPE) (delta opioid receptor) | density of vertebrae / bone mass ([2]; 30 mg intravenously daily (substitutes at comparable levels), 28 days active / 28 days calcium, two years, listed as H-Tyr-D-Ala-Gly-Phe-D-Leu) | in vitro mu opioid receptor affinity (IC50 ≤1000 times the IC50 of non-radiolabeled DAGO) (mu opioid receptor) | immunoreactive enkephalin, enkephalin secretion vs control (osteoblast-like cells) |
| --- | --- | --- | --- | --- | --- | --- | --- |
| CC(C)C[C@H](NC(=O)[C@H](Cc1ccccc1)NC(=O)CNC(=O)[C@@H](CSC(C)(C)C)NC(=O)[C@@H](N)Cc1ccc(O)cc1)C(=O)N[C@H](C(=O)O)[C@@H](C)OC(C)(C)C [BUBUC, Tyr-D-Cys(S-t-butylthioether)-Gly-Phe-Leu-Thr(O-t-butylether)] (H-Y[dC](tBu)GFLT(tBu)-OH) | significantly stimulated proliferation of the osteoblast-like cells | an increase in bone mass | no significant loss in bone mass has occurred | significant in vitro delta opioid receptor affinity |  |  |  |
| CC(C)C[C@@H](NC(=O)[C@H](Cc1ccccc1)NC(=O)CNC(=O)[C@@H](C)NC(=O)[C@@H](N)Cc1ccc(O)cc1)C(=O)O [DADLE, H-Tyr-D-Ala-Gly-Phe-D-Leu-OH] | significantly stimulated proliferation of the osteoblast-like cells | an increase in bone mass |  |  | substantially similar results | significant in vitro mu opioid receptor affinity |  |
| N=C(N)NCCC[C@H](NC(=O)[C@@H](N)Cc1ccc(O)cc1)C(=O)O [Tyr-Arg] | significantly stimulated proliferation of the osteoblast-like cells | an increase in bone mass |  |  |  |  | stimulates enkephalin secretion by osteoblast-like cells |
